# Literature values, collected in patent US12383526B2, “Optimized sigma-1 agonist method of responder selection and treatment” (ANAVEX LIFE SCIENCES CORP., priority 2018, dated 2025).
# Conditions: Phase 1 study; 1-60 mg range; male healthy subjects; cited from earlier work
smiles,measurement,value
"CN(C)CC1CCOC1(c1ccccc1)c1ccccc1.Cl (stereo not shown) [ANAVEX2-73, tetrahydro-N,N-dimethyl-2,2-diphenyl-3-furanmethanamine hydrochloride]",relationship between dose and plasma concentration,linear
